Measured values: ChEMBL document CHEMBL1152560, “Substituted 2-arylbenzothiazoles as kinase inhibitors: hit-to-lead optimization” (Bioorg Med Chem, 2009)

Key:
[1] = target: Fibroblast growth factor receptor 1 (Homo sapiens) (UniProt P11362); assay: Residual activity of wild type FGF-R1 at 0.1 uM by microplate scintillation counting
[2] = target: T1, Inhibitor of nuclear factor kappa-B kinase subunit alpha (Homo sapiens) (UniProt O15111); assay: Residual activity of IKKalpha at 0.1 uM by microplate scintillation counting
T1 sequence (whole entry): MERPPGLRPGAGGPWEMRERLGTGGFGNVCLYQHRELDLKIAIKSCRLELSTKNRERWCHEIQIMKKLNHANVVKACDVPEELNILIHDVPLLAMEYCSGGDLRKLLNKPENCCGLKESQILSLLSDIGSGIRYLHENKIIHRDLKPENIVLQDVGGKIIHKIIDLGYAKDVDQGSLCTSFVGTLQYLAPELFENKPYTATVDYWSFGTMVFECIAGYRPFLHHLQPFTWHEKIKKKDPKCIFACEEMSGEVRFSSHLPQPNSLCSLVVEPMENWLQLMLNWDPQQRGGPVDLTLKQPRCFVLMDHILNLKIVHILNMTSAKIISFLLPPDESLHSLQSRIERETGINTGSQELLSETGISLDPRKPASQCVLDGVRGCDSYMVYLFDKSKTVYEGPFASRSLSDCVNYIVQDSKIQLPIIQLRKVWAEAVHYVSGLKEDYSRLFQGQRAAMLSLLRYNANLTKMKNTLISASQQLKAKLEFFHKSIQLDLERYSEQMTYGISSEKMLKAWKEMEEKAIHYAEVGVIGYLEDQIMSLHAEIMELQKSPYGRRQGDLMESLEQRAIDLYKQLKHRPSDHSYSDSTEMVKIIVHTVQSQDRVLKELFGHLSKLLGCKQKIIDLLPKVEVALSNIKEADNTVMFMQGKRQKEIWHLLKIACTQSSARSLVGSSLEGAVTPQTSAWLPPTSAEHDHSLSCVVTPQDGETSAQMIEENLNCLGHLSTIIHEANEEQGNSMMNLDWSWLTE

[3] = target: Serine/threonine-protein kinase MARK2 (Homo sapiens) (UniProt Q7KZI7); assay: Residual activity of MARK2 at 1 uM by microplate scintillation counting
Serine/threonine-protein kinase MARK2 (Homo sapiens), sequence (Q7KZI7 whole entry): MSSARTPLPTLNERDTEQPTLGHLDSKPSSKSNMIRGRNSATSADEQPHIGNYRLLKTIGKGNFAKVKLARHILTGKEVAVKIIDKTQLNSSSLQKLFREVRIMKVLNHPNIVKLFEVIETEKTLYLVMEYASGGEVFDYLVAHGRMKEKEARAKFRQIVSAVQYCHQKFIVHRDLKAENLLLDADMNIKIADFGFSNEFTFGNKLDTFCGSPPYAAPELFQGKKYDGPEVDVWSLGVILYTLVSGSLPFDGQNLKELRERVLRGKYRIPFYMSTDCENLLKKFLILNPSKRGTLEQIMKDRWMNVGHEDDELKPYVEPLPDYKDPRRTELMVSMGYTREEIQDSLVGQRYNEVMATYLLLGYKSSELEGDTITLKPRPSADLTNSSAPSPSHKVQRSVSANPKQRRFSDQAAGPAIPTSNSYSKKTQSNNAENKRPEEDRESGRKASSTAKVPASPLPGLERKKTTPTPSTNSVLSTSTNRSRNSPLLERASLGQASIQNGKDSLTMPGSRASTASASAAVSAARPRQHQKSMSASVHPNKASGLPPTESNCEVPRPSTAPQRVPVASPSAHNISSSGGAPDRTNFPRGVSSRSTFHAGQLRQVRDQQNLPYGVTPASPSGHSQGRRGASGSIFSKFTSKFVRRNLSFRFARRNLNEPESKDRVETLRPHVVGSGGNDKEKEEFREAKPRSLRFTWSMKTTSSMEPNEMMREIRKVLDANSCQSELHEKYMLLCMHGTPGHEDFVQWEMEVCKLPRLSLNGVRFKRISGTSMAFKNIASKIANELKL

[4] = target: Serine/threonine-protein kinase Nek6 (Homo sapiens) (UniProt Q9HC98); assay: Residual activity of NEK6 at 1 uM by microplate scintillation counting
Serine/threonine-protein kinase Nek6 (Homo sapiens), sequence (Q9HC98 whole entry): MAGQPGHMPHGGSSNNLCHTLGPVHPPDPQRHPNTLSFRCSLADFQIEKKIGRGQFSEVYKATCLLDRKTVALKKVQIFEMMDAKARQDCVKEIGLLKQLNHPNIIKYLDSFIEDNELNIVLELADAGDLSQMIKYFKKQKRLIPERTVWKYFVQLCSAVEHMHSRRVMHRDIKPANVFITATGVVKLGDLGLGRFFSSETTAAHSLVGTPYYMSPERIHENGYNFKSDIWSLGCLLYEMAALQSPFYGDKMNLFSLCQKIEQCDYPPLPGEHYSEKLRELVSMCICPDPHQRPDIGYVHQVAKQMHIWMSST

[5] = tested on: RAF proto-oncogene serine/threonine-protein kinase (Homo sapiens), P04049 [Y340D,Y341D]; assay: Residual activity of RAF1 Y340D/Y341D mutant at 1 uM by microplate scintillation counting
[6] = target: Mitogen-activated protein kinase 10 (Homo sapiens) (UniProt P53779); assay: Residual activity of JNK3 at 10 uM by microplate scintillation counting
Mitogen-activated protein kinase 10 (Homo sapiens), sequence (P53779 whole entry): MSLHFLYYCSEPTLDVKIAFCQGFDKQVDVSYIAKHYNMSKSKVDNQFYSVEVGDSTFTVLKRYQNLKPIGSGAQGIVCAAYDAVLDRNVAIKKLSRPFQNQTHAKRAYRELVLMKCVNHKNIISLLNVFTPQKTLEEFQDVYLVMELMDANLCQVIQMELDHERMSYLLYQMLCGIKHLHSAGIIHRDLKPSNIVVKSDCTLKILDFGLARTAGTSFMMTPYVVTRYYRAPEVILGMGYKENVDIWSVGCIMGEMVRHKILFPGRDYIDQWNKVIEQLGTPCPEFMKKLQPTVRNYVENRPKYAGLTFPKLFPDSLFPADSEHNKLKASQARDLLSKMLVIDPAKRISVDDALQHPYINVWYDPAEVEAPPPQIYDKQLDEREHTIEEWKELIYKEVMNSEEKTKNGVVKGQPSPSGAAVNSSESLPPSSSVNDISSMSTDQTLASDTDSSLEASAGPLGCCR

[7] = target: Activin receptor type-1-like (Homo sapiens) (UniProt P37023); assay: Residual activity of ACV-RL1 at 1 uM by microplate scintillation counting
Activin receptor type-1-like (Homo sapiens), sequence (P37023 whole entry): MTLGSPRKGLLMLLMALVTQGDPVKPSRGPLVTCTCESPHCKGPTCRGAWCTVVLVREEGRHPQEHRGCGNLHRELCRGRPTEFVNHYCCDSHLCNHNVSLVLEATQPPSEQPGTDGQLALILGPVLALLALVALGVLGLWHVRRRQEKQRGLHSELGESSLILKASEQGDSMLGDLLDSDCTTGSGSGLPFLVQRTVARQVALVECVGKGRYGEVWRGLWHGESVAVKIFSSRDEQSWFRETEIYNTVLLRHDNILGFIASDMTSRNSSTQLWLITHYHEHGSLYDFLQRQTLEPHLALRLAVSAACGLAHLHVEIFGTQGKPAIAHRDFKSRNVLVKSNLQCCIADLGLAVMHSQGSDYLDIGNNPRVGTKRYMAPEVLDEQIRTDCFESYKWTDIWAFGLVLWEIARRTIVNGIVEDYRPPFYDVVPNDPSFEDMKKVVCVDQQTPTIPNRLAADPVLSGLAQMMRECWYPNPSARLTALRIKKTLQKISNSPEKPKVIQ

[8] = target: CDK6/cyclin D1 (Homo sapiens) (UniProt P24385+Q00534); assay: Residual activity of CDK6/Cyclin D1 at 10 uM by microplate scintillation counting; type: protein-complex assay
[9] = target: CDK1/Cyclin E (Homo sapiens) (UniProt P06493+P24864); assay: Residual activity of CDK1/Cyclin E at 0.1 uM by microplate scintillation counting; type: protein-complex assay
CDK1/Cyclin E (Homo sapiens), sequence (P06493 whole entry, looked up, canonical isoform): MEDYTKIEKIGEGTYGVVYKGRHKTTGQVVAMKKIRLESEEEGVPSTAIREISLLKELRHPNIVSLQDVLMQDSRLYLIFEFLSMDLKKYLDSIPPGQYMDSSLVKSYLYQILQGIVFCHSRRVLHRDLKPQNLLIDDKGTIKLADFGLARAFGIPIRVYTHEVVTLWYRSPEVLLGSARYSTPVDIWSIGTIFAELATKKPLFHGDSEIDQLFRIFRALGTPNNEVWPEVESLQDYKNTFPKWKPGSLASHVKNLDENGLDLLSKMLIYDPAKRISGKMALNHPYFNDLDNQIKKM
CDK1/Cyclin E (Homo sapiens), sequence (P24864 whole entry, looked up, canonical isoform): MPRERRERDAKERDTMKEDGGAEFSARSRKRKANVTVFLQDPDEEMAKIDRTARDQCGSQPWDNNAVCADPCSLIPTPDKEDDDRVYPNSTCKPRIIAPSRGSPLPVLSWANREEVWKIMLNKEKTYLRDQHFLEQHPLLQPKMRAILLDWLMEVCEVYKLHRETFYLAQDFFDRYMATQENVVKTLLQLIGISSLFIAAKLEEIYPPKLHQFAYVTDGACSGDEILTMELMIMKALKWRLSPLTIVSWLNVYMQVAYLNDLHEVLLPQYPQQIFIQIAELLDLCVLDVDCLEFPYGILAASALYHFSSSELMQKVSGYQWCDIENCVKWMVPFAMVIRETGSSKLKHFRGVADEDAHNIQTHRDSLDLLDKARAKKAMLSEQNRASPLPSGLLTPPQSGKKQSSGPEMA

[10] = target: Casein kinase I isoform delta (Homo sapiens) (UniProt P48730); assay: Residual activity of CK1delta at 0.1 uM by microplate scintillation counting
[11] = target: PAS domain-containing serine/threonine-protein kinase (Homo sapiens) (UniProt Q96RG2); assay: Residual activity of PASK at 0.1 uM by microplate scintillation counting
PAS domain-containing serine/threonine-protein kinase (Homo sapiens), sequence (Q96RG2 whole entry, the tested form may be a part): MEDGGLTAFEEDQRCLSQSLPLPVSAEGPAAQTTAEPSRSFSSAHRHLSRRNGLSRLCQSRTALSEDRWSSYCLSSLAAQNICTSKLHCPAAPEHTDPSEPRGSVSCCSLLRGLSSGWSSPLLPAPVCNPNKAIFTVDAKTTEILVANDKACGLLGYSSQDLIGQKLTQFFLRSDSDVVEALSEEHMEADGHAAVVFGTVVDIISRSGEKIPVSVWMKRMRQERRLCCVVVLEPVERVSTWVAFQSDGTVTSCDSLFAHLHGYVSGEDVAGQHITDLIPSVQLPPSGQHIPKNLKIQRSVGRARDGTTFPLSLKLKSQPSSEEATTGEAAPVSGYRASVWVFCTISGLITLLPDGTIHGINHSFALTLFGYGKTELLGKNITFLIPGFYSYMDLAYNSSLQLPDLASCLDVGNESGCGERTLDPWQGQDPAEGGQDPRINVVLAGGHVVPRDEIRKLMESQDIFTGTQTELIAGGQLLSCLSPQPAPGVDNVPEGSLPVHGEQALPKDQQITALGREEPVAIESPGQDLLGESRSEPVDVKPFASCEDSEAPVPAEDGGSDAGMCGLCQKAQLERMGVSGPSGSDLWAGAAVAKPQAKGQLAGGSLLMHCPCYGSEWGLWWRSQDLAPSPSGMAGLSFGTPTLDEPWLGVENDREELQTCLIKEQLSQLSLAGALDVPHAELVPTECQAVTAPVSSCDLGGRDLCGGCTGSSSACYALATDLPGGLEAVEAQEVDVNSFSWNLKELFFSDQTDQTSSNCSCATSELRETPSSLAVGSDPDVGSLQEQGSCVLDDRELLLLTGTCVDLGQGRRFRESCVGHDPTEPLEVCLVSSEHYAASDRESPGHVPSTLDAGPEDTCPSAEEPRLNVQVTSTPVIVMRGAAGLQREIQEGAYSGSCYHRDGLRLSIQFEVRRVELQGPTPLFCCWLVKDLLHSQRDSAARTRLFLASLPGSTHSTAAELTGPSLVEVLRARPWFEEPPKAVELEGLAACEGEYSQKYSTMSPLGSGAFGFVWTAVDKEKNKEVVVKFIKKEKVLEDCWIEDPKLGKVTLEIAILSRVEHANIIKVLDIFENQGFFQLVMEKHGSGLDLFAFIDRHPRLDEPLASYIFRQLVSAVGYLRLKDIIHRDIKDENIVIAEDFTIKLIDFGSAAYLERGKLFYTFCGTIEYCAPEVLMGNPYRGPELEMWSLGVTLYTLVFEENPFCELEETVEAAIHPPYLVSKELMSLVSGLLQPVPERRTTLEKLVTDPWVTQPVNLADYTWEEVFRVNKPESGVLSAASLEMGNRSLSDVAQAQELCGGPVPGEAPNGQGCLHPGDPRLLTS

[12] = target: T2, Lymphokine-activated killer T-cell-originated protein kinase (Homo sapiens) (UniProt Q96KB5); assay: Residual activity of PBK at 0.1 uM by microplate scintillation counting
T2 sequence (whole entry): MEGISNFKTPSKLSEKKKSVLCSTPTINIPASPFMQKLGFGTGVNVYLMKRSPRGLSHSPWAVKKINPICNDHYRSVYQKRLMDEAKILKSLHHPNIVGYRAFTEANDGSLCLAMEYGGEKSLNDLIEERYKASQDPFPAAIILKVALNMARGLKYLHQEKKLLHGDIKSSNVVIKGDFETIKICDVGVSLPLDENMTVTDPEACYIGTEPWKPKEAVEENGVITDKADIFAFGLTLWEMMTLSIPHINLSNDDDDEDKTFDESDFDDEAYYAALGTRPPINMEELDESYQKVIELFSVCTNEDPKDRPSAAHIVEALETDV

[13] = Residual activity of S6K at 10 uM by microplate scintillation counting
[14] = target: SRSF protein kinase 2 (Homo sapiens) (UniProt P78362); assay: Residual activity of SRPK2 at 10 uM by microplate scintillation counting
SRSF protein kinase 2 (Homo sapiens), sequence (P78362 whole entry, looked up): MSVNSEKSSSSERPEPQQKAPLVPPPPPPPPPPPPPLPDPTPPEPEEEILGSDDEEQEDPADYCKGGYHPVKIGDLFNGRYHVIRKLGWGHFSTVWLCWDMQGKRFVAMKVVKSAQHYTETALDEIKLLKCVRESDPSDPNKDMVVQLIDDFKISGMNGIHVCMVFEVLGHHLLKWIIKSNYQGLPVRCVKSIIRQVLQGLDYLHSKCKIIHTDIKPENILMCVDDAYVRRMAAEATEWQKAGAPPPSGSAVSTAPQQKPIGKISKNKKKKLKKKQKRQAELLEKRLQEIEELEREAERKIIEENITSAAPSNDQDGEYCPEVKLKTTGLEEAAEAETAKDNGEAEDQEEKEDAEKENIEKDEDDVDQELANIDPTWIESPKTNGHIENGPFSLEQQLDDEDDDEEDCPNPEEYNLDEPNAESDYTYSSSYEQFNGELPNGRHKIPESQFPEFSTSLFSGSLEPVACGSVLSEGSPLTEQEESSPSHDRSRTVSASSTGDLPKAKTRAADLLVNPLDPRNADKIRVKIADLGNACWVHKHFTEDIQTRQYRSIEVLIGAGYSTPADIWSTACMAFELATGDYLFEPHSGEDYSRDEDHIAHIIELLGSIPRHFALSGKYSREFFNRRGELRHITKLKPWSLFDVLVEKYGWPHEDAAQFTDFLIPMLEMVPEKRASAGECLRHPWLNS

[15] = target: T3, TGF-beta receptor type-1 (Homo sapiens) (UniProt P36897); assay: Residual activity of TGFB-R1 at 10 uM by microplate scintillation counting
T3 sequence (whole entry): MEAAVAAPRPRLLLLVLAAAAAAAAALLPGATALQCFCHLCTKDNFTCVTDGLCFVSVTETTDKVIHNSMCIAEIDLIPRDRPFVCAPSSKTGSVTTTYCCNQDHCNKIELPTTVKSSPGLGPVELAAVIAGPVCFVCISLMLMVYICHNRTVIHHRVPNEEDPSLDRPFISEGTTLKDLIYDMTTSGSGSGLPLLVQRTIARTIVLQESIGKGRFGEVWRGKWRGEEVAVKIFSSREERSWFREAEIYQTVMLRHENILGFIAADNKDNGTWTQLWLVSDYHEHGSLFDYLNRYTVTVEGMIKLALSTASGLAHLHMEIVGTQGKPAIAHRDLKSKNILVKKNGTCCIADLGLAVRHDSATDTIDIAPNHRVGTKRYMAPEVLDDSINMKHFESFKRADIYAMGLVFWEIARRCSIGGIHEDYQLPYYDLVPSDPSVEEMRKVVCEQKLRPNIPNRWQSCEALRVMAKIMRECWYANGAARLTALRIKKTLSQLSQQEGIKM

| Structure (SMILES) | residual activity [1] [%] | residual activity [2] [%] | residual activity [3] [%] | residual activity [4] [%] | residual activity [5] [%] | residual activity [6] [%] | residual activity [7] [%] | residual activity [8] [%] | residual activity [9] [%] | residual activity [10] [%] | residual activity [11] [%] | residual activity [12] [%] | residual activity [13] [%] | residual activity [14] [%] | residual activity [15] [%] |
| --- | --- | --- | --- | --- | --- | --- | --- | --- | --- | --- | --- | --- | --- | --- | --- |
| COc1cc2c(Oc3ccc(-c4nc5ccccc5s4)cc3)ncnc2cc1OCCCN1CCN(C)CC1 | 103 | 87 | 74 | 96 | 97 | 52 | 78 | 193 | 85 | 94 | 92 | 96 | 29 | 115 | 94 |
| COc1cc2c(Oc3ccc(-c4nc5ccccc5s4)cc3F)ncnc2cc1OCCCN1CCN(C)CC1 | 95 | 81 | 87 | 102 | 104 | 45 | 92 | 167 | 89 | 98 | 89 | 91 | 36 | 100 | 94 |
| COc1cc2c(Oc3ccc(-c4nc5ccccc5s4)cc3)ncnc2cc1OCCCN1CCCC1 | 101 | 89 | 86 | 84 | 90 | 84 | 92 | 140 | 78 | 95 | 99 | 110 | 37 | 128 | 100 |
